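Compound exposure: 48 hours, 5 concentrations, 96-well plates. The concentration for full growth arrest is given as TGI.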
Legend:
Assay in all cases: growth of human tumour cells (NCI), 48 h
[1] = system: 786-0 renal
[2] = system: A498 renal
[3] = system: A549 NSCLC
[4] = system: ACHN renal
[5] = system: BT-549 breast
[6] = system: CAKI-1 renal
[7] = system: CCRF-CEM leukemia
[8] = system: COLO 205 colon
[9] = system: DU-145 prostate
[10] = system: EKVX NSCLC
[11] = system: HCC-2998 colon
[12] = system: HCT-116 colon
[13] = system: HCT-15 colon
[14] = system: HL-60(TB) leukemia
[15] = system: HOP-62 NSCLC
[16] = system: HOP-92 NSCLC
[17] = system: HS 578T breast
[18] = system: HT29 colon
[19] = system: IGROV1 ovarian
[20] = system: K-562 leukemia
[21] = system: KM12 colon
[22] = system: LOX IMVI melanoma
[23] = system: M14 melanoma
[24] = system: MALME-3M melanoma
[25] = system: MCF7 breast
[26] = system: MDA-MB-231 breast
[27] = system: MDA-MB-435
[28] = system: MDA-N
[29] = system: MOLT-4 leukemia
[30] = system: NCI-H226 lung
[31] = system: NCI-H23 lung
[32] = system: NCI-H460 lung
[33] = system: NCI-H522 lung
[34] = system: NCI/ADR-RES ovarian
[35] = system: OVCAR-3 ovarian
[36] = system: OVCAR-4 ovarian
[37] = system: OVCAR-5 ovarian
[38] = system: PC-3 prostate
[39] = system: RPMI-8226 leukemia
[40] = system: RXF 393 renal
[41] = system: SF-295 CNS
[42] = system: SF-539 CNS
[43] = system: SK-MEL-2 melanoma
[44] = system: SK-MEL-28 melanoma
[45] = system: SK-MEL-5 melanoma
[46] = system: SK-OV-3 ovarian
[47] = system: SN12C renal
[48] = system: SNB-19 CNS
[49] = system: SNB-75 CNS
[50] = system: SR leukemia
[51] = system: SW-620 colon
[52] = system: T-47D breast
[53] = system: TK-10 renal
[54] = system: U251 CNS
[55] = system: UACC-257 melanoma
[56] = system: UACC-62 melanoma
[57] = system: UO-31 renal
[58] = system: OVCAR-8 ovarian
[59] = system: SF-268 CNS

Compound: COC(=O)C1Cc2ccc(O)c(O)c2CN1 (stereo unspecified)
- TGI [1]: 31.8 µM
- TGI [2]: > 100 µM
- TGI [3]: > 100 µM
- TGI [4]: > 100 µM
- TGI [5]: 32.2 µM
- TGI [6]: > 100 µM
- TGI [7]: > 100 µM
- TGI [8]: > 100 µM
- TGI [9]: 81.2 µM
- TGI [10]: > 100 µM
- TGI [11]: > 100 µM
- TGI [12]: 52.6 µM
- TGI [13]: 87.1 µM
- TGI [14]: 72.6 µM
- TGI [15]: > 100 µM
- TGI [16]: 86.7 µM
- TGI [17]: 56 µM
- TGI [18]: 55.7 µM
- TGI [19]: > 100 µM
- TGI [20]: 83.6 µM
- TGI [21]: > 100 µM
- TGI [22]: 28.4 µM
- TGI [23]: 29.7 µM
- TGI [24]: 98.7 µM
- TGI [25]: 32 µM
- TGI [26]: 43.3 µM
- TGI [27]: 30.5 µM
- TGI [28]: 30.8 µM
- TGI [29]: 58.7 µM
- TGI [30]: > 100 µM
- TGI [31]: 31.8 µM
- TGI [32]: > 100 µM
- TGI [33]: > 100 µM
- TGI [34]: 48.6 µM
- TGI [35]: > 100 µM
- TGI [36]: 39.3 µM
- TGI [37]: 70.3 µM
- TGI [38]: 84.3 µM
- TGI [39]: 68 µM
- TGI [40]: > 100 µM
- TGI [41]: 20.4 µM
- TGI [42]: 32.5 µM
- TGI [43]: 31.2 µM
- TGI [44]: 31 µM
- TGI [45]: 28.5 µM
- TGI [46]: > 100 µM
- TGI [47]: 30 µM
- TGI [48]: > 100 µM
- TGI [49]: 34.4 µM
- TGI [50]: 82.2 µM
- TGI [51]: 40.7 µM
- TGI [52]: > 100 µM
- TGI [53]: > 100 µM
- TGI [54]: 31.2 µM
- TGI [55]: 29.2 µM
- TGI [56]: 39 µM
- TGI [57]: 51.8 µM

Compound: CO[C@H]1C=CO[C@@]2(C)Oc3c(C)c(O)c4c(O)c(c(CN5CCN(C)CC5)c(O)c4c3C2=O)NC(=O)/C(C)=C\C=C[C@H](C)[C@H](O)C(C)[C@@H](O)C(C)[C@H](OC(C)=O)[C@@H]1C (stereo partly specified)
- TGI [1]: > 100 µM
- TGI [2]: > 100 µM
- TGI [3]: > 100 µM
- TGI [4]: > 100 µM
- TGI [5]: > 100 µM
- TGI [6]: > 100 µM
- TGI [7]: 22.3 µM
- TGI [8]: 25.2 µM
- TGI [9]: > 100 µM
- TGI [10]: > 100 µM
- TGI [11]: > 100 µM
- TGI [12]: 35.9 µM
- TGI [13]: > 100 µM
- TGI [14]: 83.7 µM
- TGI [15]: > 100 µM
- TGI [16]: > 100 µM
- TGI [17]: > 100 µM
- TGI [18]: > 100 µM
- TGI [19]: > 100 µM
- TGI [20]: > 100 µM
- TGI [21]: > 100 µM
- TGI [22]: > 71.9 µM
- TGI [23]: > 75 µM
- TGI [24]: > 100 µM
- TGI [25]: 33.7 µM
- TGI [26]: > 100 µM
- TGI [27]: > 60.8 µM
- TGI [28]: > 100 µM
- TGI [29]: 49.1 µM
- TGI [30]: > 100 µM
- TGI [31]: > 77.6 µM
- TGI [32]: > 100 µM
- TGI [33]: 46.5 µM
- TGI [34]: > 100 µM
- TGI [35]: 14.4 µM
- TGI [36]: > 100 µM
- TGI [37]: > 100 µM
- TGI [58]: > 100 µM
- TGI [38]: > 100 µM
- TGI [39]: > 87.4 µM
- TGI [40]: > 100 µM
- TGI [59]: > 100 µM
- TGI [41]: > 100 µM
- TGI [42]: > 68.5 µM
- TGI [43]: > 100 µM
- TGI [44]: > 100 µM
- TGI [45]: 56.4 µM
- TGI [46]: > 100 µM
- TGI [47]: > 93.9 µM
- TGI [48]: > 100 µM
- TGI [49]: > 100 µM
- TGI [50]: 35.5 µM
- TGI [51]: > 100 µM
- TGI [52]: > 100 µM
- TGI [53]: > 100 µM
- TGI [54]: > 100 µM
- TGI [55]: > 72.8 µM
- TGI [56]: > 100 µM
- TGI [57]: > 94.4 µM

Reference: PubChem BioAssay (NCI)
